Assay results reported in US20110275599A1, “USE OF COLD-STABILIZED METHYLATED VEGETABLE OILS AS AN AGRICULTURAL CHEMICAL COFORMULANT” (priority 2010, published 2011).

Test: High throughput solubility screen in Permaflo methylated soybean oil
Type: physicochemical
Method: The solubility of several agricultural active ingredients in Permaflo methylated soybean oil was determined using a high throughput solubility screen.
Liquid handler was calibrated for each liquid and vials were tared. Active ingredients were melted or dissolved and then transferred into tared vials. Solvent was removed or active was allowed to crystallize before weighing. Permaflo methylated soybean oil was added in desired quantities; vials were weighed, and capped. Mixtures were agitated (220 rpm) for 48 hours at 0° C. […] Samples were held at 0° C. for 24 hours before imaging. Samples were transferred to shaker plate on bench and were agitated for 48 hours, before seeding, holding for 24 hours and imaging. Samples were then transferred to 40° C. shaker plate, agitated for 48 hours, seeded, held and then imaged again. All samples were imaged using normal light.

Row | SMILES | solubility in Permaflo methylated soybean oil (0° C.) [%] | solubility in Permaflo methylated soybean oil (24° C.) [%] | solubility in Permaflo methylated soybean oil (40° C.) [%]
1 | CCOP(=S)(OCC)Oc1nc(Cl)c(Cl)cc1Cl [Chlorpyrifos] | 35 | 55 | >60
2 | Nc1c(Cl)c(F)nc(OCC(=O)O)c1Cl [Fluroxypyr] | 25 | 35 | 55
